#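 Interpolation was linear, between the two tested concentrations surrounding the appropriate level; five concentrations were tested over 48 hours in 96-well plates. The concentration for 50% growth inhibition is given as GI50. Definition used: TGI = concentration required for complete inhibition of growth.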
# What was measured:
# Assay in all cases: DTP human tumour cell line panel, 48 h
# CAKI-1 renal = test system: CAKI-1 renal
# IGROV1 ovarian = test system: IGROV1 ovarian
# M14 melanoma = test system: M14 melanoma
# MOLT-4 leukemia = test system: MOLT-4 leukemia
# NCI-H460 lung = test system: NCI-H460 lung
# NCI-H522 lung = test system: NCI-H522 lung
# OVCAR-5 ovarian = test system: OVCAR-5 ovarian
# MDA-MB-231 breast = test system: MDA-MB-231 breast
# UACC-62 melanoma = test system: UACC-62 melanoma
# SR leukemia = test system: SR leukemia
SMILES,TGI (CAKI-1 renal) [µM],TGI (IGROV1 ovarian) [µM],TGI (M14 melanoma) [µM],TGI (MOLT-4 leukemia) [µM],TGI (NCI-H460 lung) [µM],TGI (NCI-H522 lung) [µM],TGI (OVCAR-5 ovarian) [µM],GI50 (CAKI-1 renal) [µM],GI50 (IGROV1 ovarian) [µM],GI50 (M14 melanoma) [µM],GI50 (MDA-MB-231 breast) [µM],TGI (MDA-MB-231 breast) [µM],GI50 (MOLT-4 leukemia) [µM],GI50 (NCI-H460 lung) [µM],GI50 (NCI-H522 lung) [µM],GI50 (OVCAR-5 ovarian) [µM],GI50 (UACC-62 melanoma) [µM],TGI (UACC-62 melanoma) [µM],GI50 (SR leukemia) [µM],TGI (SR leukemia) [µM]
CC1=C(C(=O)Nc2cc(F)c(F)cc2F)C(c2ccc([N+](=O)[O-])cc2)C(C(=O)Nc2cc(F)c(F)cc2F)=C(C)N1,> 100,> 100,> 100,> 100,> 100,55.6,> 100,,,,,,,,,,,,,
c1ccc2c3c([nH]c2c1)C(c1ccc(C2NCCc4c2[nH]c2ccccc42)cc1)NCC3 (stereo not drawn),4.03,2.83,1.58,1.53,0.449,1.49,4.17,1.66,1.34,0.403,0.296,0.936,0.378,0.221,0.414,1.81,0.749,2.13,,
CC[n+]1c(/C=C/C=C2\N(C)c3ccccc3C2(C)C)sc2ccccc21,,10.7,8.33,11.6,8.93,9.03,11.7,,4.68,4.03,4.5,10.3,4.44,4.5,3.8,4.82,4.03,8.32,3.32,9.32
COc1cc2c3c(n(C)c(=O)c2cc1OC)-c1ccc(C#N)cc1C3=O,> 100,> 100,> 100,> 100,> 100,> 100,> 100,> 100,30.5,> 100,> 100,> 100,> 100,> 100,52,> 100,> 100,> 100,,
CCOc1ccc(NC(=O)CC2C(=O)Nc3ccccc3S2(=O)=O)cc1 (stereo not drawn),,> 100,,> 100,> 100,> 100,> 100,,,,,,,,,,,,,> 100
O=C(NNc1ccccc1)/C(=C/c1ccc2c(c1)OCO2)NC(=O)c1ccccc1,> 100,> 100,> 100,> 100,> 100,> 100,> 100,,,,,,,,,,,> 100,,> 100
CC(=O)C1=C(O)C2C3c4c[nH]c5cccc(c45)CC3C(C)(C)N2C1=O (stereo not drawn),> 100,> 100,> 100,> 100,31.8,63.4,> 100,,,,,,,,,,,> 100,,
O=C(CC(Cl)=C(Cl)Cl)c1cccc(Cl)c1Cl,,> 100,> 100,> 100,> 100,> 100,> 100,,46.3,> 100,65.6,> 100,24,> 100,36.9,> 100,52.4,> 100,,
CCN1CCN(C(=O)[C@]23CCC(C)(C)C[C@@H]2C2=CC[C@@H]4[C@@]5(C)C/C(=C/c6ccncc6)C(=O)C(C)(C)[C@@H]5CC[C@@]4(C)[C@]2(C)CC3)CC1,2.95,3.13,3.17,,2.7,3.39,3.15,1.45,1.6,1.54,1.63,3.16,,1.28,1.53,1.66,1.46,2.82,,
CC(=O)NNc1nc(C)c(C(=O)NNC(=O)C(=O)Nc2ccc(Cl)cc2Cl)s1,75.5,> 100,> 100,57,,52.8,> 100,,,,,,,,,,,57.4,,
COc1cccc(-c2cc(=O)c3ccccc3[nH]2)c1,,> 100,> 100,> 100,> 100,> 34.2,> 100,,,,,,,,,,,> 100,,> 100
COc1ccc(/C=C/C(=O)c2sc(-n3nc(-c4ccccc4)cc3-c3ccccc3)nc2C)cc1,> 100,> 100,> 100,> 100,> 100,> 100,,,> 100,> 100,,,,> 100,,,> 100,> 100,,
c1cc2c(cn1)Nc1ccncc1S2,> 100,,> 100,> 100,> 100,> 100,> 100,> 100,,32.6,98.9,> 100,33.4,27.8,40.4,25.2,41.9,> 100,,
CC(C)(C)C(C#N)(C#N)c1ccc(C(C#N)(C#N)C(C)(C)C)nn1,> 100,> 100,> 100,> 100,> 100,> 100,> 100,,,,,,,,,,,> 100,,
CN1c2ccccc2N(C(=O)c2ccccc2)C(CC(=O)O)c2cccn21 (stereo not drawn),> 100,> 100,> 100,> 100,> 100,> 100,> 100,,,,,,,,,,,> 100,,
C[C@]12CCC3[C@@H](CC[C@@H]4c5nonc5CC[C@]34C)C1CC[C@@H]2O (stereo partly drawn),52.6,> 100,53,55.1,71.7,50.9,> 100,,,,,,,,,,,> 100,,
COC(=O)c1ccc(NC(=O)Oc2ccc(N(CCCl)CCCl)cc2)cc1,7.36,59.8,> 100,,14.9,16.3,> 100,0.434,11.8,5.97,20.1,> 100,,0.386,3.47,30.8,3.36,23.5,0.394,> 100
c1ccc2c(c1)cc1n2CC2CN=NC12 (stereo not drawn),> 100,> 100,> 100,> 100,> 100,> 100,> 100,,,,,,,,,,,> 100,,> 100
CN(c1ccccc1)c1c(Cl)c(=O)oc2c1ccc1occc12,> 100,,> 100,> 100,> 100,> 100,> 100,,,,,,,,,,,> 100,,> 100
C=CCc1cc(OC)c2c(c1)C(OC)CC(c1ccc(OC)c(OC)c1)O2 (stereo not drawn),> 100,> 100,> 100,> 100,> 100,,> 100,,,,,,,,,,,> 100,,

SMILES,TGI (CAKI-1 renal) [µM],TGI (IGROV1 ovarian) [µM],TGI (M14 melanoma) [µM],TGI (MOLT-4 leukemia) [µM],TGI (NCI-H460 lung) [µM],TGI (NCI-H522 lung) [µM],TGI (OVCAR-5 ovarian) [µM],GI50 (CAKI-1 renal) [µM],GI50 (IGROV1 ovarian) [µM],GI50 (M14 melanoma) [µM],GI50 (MDA-MB-231 breast) [µM],TGI (MDA-MB-231 breast) [µM],GI50 (MOLT-4 leukemia) [µM],GI50 (NCI-H460 lung) [µM],GI50 (NCI-H522 lung) [µM],GI50 (OVCAR-5 ovarian) [µM],GI50 (UACC-62 melanoma) [µM],TGI (UACC-62 melanoma) [µM],GI50 (SR leukemia) [µM],TGI (SR leukemia) [µM]
CC1=C(C(=O)Nc2ccc(Cl)c(C(=O)OC(C)C)c2)SCCO1,> 100,> 81.1,> 100,84.4,99.6,69.9,75.3,,,,,> 100,,,,,,93.2,,
Cc1cc(Cl)nc(N(CCCNc2ccnc3cc(Cl)ccc23)Cc2ccco2)n1,,8.26,4.08,6.46,6.2,12.4,22.6,,1.92,1.88,2.13,5.93,1.93,2.04,2.93,3.12,2.32,6.8,1.65,4.49
CC1(C)C(=O)C(C)(C)C1=S,> 100,> 100,> 100,> 100,> 100,> 100,> 100,,,,,,,,,,,> 100,,> 100
CCCCCCC[CH2][Sn]1([CH2]CCCCCCC)[O]C(=O)c2cccnc2[O]1,> 100,> 100,> 100,> 100,> 100,> 100,> 100,> 100,> 100,> 100,,,> 100,> 100,> 100,> 100,> 100,> 100,> 100,> 100
O=C(Nc1nc2c(ncn2C2OC(CO)C(O)C2O)c(=O)[nH]1)c1ccccc1 (stereo not drawn),> 100,> 100,> 100,,> 100,> 100,> 100,,,,,,,,,,,> 100,,> 100
CCSc1c2ccccc2c(-c2nc(F)nc(F)n2)n1CCc1ccccc1,> 100,,> 100,> 100,> 100,> 100,> 100,,,,,,,,,,,,,> 100
COc1cc(CCc2ccc(N)cc2)cc(OC)c1OC,> 100,> 100,> 100,> 100,> 100,> 83.4,> 100,,,,,,,,,,,> 89.8,,
Cn1nc(-c2ccccc2)c2c(/C=C/c3ccccc3)onc2c1=O,> 100,> 100,> 100,> 100,> 100,> 100,> 100,,,,,,,,,,,> 100,,> 100
CC(SC(=O)Nc1ccc(N=Nc2ccccc2)cc1)C(=O)O (stereo not drawn),> 100,> 100,> 100,> 100,> 100,> 100,> 100,,,,,,,,,,,> 100,,> 100
O=C(COc1cccc(/C=C2\CSc3ccccc3C2=O)c1)Nc1nccs1,6.33,,4.06,,25.5,3.27,15.5,1.72,,1.88,5.46,21.4,,10,1.55,3.08,1.48,3.12,0.557,2.44
Brc1ccc2ns[s+]c2c1,> 100,> 100,5.88,> 100,> 100,> 100,> 100,,,,,,,,,,,> 20.5,,> 100
CN(C)CCNC(=O)c1cccc2c1Oc1c(cccc1[N+](=O)[O-])O2,1.16,8.9,16.2,2.27,2.66,3.22,8.14,,,,,,,,,,,1.77,,15.6
N#C/C(=C/NC(=S)c1ccncc1)C(N)=O,> 100,> 100,> 100,> 100,> 100,,> 100,,,,,> 100,,,,,,> 100,,
CC(=O)O[C@H]1CC[C@@]2(C)C(=CC[C@@H]3C2CC[C@]2(C)Nc4nc5ccccc5cc4CC32)C1 (stereo partly drawn),18.4,30,5.03,11.7,17.5,24.1,26.9,,,,,,,,,,,22.9,,
O=c1[nH]cnc2c1nnn2CCCCCCCCCCCCn1nnc2c(=O)[nH]cnc21,> 100,> 77.8,> 100,> 100,> 100,63,> 100,,,,,,,,,,,> 78,,> 100
Cc1ccc(S(=O)(=O)NC(CN)C(=O)O)cc1 (stereo not drawn),> 100,> 100,> 100,> 100,> 100,> 100,> 100,,,,,> 100,,,,,,> 100,,
Nc1c(Cl)ncnc1NCCCNc1ncnc(Cl)c1N,> 100,> 100,> 100,> 100,> 100,> 100,> 100,,,,,,,,,,,> 100,,> 100
CC(=O)c1c(C)[nH]c(-c2nc3ccc(N4CCN(C)CC4)cc3[nH]2)c1-c1ccccc1,12.8,14.4,19.4,> 100,31.4,14.4,22.9,0.212,1.12,1.1,0.728,22.8,6.47,4.24,0.258,1.12,0.274,12.7,,
NC(=O)NC1C(C(N)=O)N(Cc2ccccc2)C(=O)N1Cc1ccccc1 (stereo not drawn),> 100,> 100,> 100,> 100,> 100,> 100,> 100,,,,,,,,,,,> 100,,> 100

# Source: PubChem BioAssay (NCI)
